The NIST ThermoML archive (doi:10.1021/je700492k)
± gives the expanded uncertainty stated by the source.

Test: excess molar enthalpy (molar enthalpy of mixing); xn = mol fraction of the nth substance listed
Conditions: Liquid, Flow calorimetry

CC(=O)CC(C)=O [2,4-pentanedione] + CCCO
excess molar enthalpy [kcal/mol]
Conditions | 298.15 K | 313.15 K | 328.15 K
100 kPa, x1 = 0.0502 | 0.0721 ± 0.00196 | 0.0788 ± 0.00215 | 0.0869 ± 0.00234
100 kPa, x1 = 0.1502 | 0.184 ± 0.00406 | 0.205 ± 0.00454 | 0.224 ± 0.00502
100 kPa, x1 = 0.2502 | 0.259 ± 0.00574 | 0.289 ± 0.00621 | 0.321 ± 0.00693
100 kPa, x1 = 0.3504 | 0.311 ± 0.00669 | 0.347 ± 0.00741 | 0.385 ± 0.00837
100 kPa, x1 = 0.4001 | 0.327 ± 0.00693 | 0.364 ± 0.00789 | 0.404 ± 0.0086
100 kPa, x1 = 0.4502 | 0.338 ± 0.00717 | 0.374 ± 0.00813 | 0.416 ± 0.00884
100 kPa, x1 = 0.5006 | 0.344 ± 0.00741 | 0.38 ± 0.00813 | 0.421 ± 0.00908
100 kPa, x1 = 0.5501 | 0.344 ± 0.00741 | 0.378 ± 0.00813 | 0.419 ± 0.00884
100 kPa, x1 = 0.5997 | 0.339 ± 0.00717 | 0.371 ± 0.00789 | 0.41 ± 0.00884
100 kPa, x1 = 0.6495 | 0.327 ± 0.00693 | 0.355 ± 0.00765 | 0.392 ± 0.00837
100 kPa, x1 = 0.6994 | 0.309 ± 0.00669 | 0.333 ± 0.00717 | 0.366 ± 0.00789
100 kPa, x1 = 0.8006 | 0.248 ± 0.00526 | 0.261 ± 0.00574 | 0.286 ± 0.00621
100 kPa, x1 = 0.8504 | 0.202 ± 0.00454 | 0.211 ± 0.00478 | 0.233 ± 0.00526
100 kPa, x1 = 0.9493 | 0.0794 ± 0.00215 | 0.0835 ± 0.00225 | 0.0913 ± 0.00239
10000 kPa, x1 = 0.0502 | 0.0712 ± 0.00191 | 0.0775 ± 0.0021 | 0.0866 ± 0.00234
10000 kPa, x1 = 0.1504 | 0.181 ± 0.00406 | 0.201 ± 0.00454 | 0.222 ± 0.00502
10000 kPa, x1 = 0.2504 | 0.258 ± 0.0055 | 0.285 ± 0.00621 | 0.317 ± 0.00693
10000 kPa, x1 = 0.3507 | 0.309 ± 0.00669 | 0.343 ± 0.00741 | 0.379 ± 0.00813
10000 kPa, x1 = 0.4004 | 0.326 ± 0.00693 | 0.361 ± 0.00765 | 0.399 ± 0.0086
10000 kPa, x1 = 0.4505 | 0.338 ± 0.00717 | 0.371 ± 0.00789 | 0.413 ± 0.00884
10000 kPa, x1 = 0.501 | 0.344 ± 0.00741 | 0.375 ± 0.00813 | 0.418 ± 0.00884
10000 kPa, x1 = 0.5505 | 0.343 ± 0.00741 | 0.375 ± 0.00813 | 0.415 ± 0.00884
10000 kPa, x1 = 0.6001 | 0.339 ± 0.00717 | 0.367 ± 0.00789 | 0.405 ± 0.0086
10000 kPa, x1 = 0.6499 | 0.326 ± 0.00693 | 0.352 ± 0.00765 | 0.387 ± 0.00837
10000 kPa, x1 = 0.6997 | 0.308 ± 0.00669 | 0.329 ± 0.00717 | 0.36 ± 0.00765
10000 kPa, x1 = 0.8009 | 0.246 ± 0.00526 | 0.257 ± 0.0055 | 0.282 ± 0.00621
10000 kPa, x1 = 0.8506 | 0.201 ± 0.00454 | 0.207 ± 0.00454 | 0.228 ± 0.00502
10000 kPa, x1 = 0.9494 | 0.0791 ± 0.00213 | 0.0806 ± 0.00217 | 0.0894 ± 0.00239
